The numbers were not newly measured in patent publication US7902399B2, “Fatty acids analogous” (Thia Medica AS, priority 2000, dated 2011), which cites them from elsewhere.

For this series the following is noted: rat.

On to `CCCCCCCCCCCCCCSCC(=O)O` [TTA], for which the “metabolite formation in vivo (Δ9-desaturase)” value is reported as “a desaturated product of TTA is formed in vivo”.
